Patent publication EP0160258A2, “(6,11-Dihydro-11-oxodibenz(bm,e)oxepinyl)pentanols, a process and intermediates for their preparation and their use as medicaments” (HOECHST-ROUSSEL PHARMACEUTICALS INCORPORATED, priority 1984, dated 1985)
Like-named read-outs stand apart in the source and are kept apart here.

System: adjuvant-induced polyarthritis
Test: adjuvant-induced polyarthritis syndrome in rats (paw volume)
Assay type: in vivo
Details: Rattus norvegicus, 504 h, dose effecting 50 % inhibition of paw volume, oral, day before adjuvant and continued for 21 days, male Charles River-Wistar Lewis rats
Method: The (6,11-dihydro-11-oxodibenz[b,e]oxepinyl)pentanols and derivatives thereof of the present invention are useful as antiarthritic agents due to their ability to specifically suppress arthritis-type inflammation in mammals. […] M. Perrone and F. D. Wood, Arthritis and Rheumatism, 2, 440 (1959).
Groups of 10 male Charles River-Wistar Lewis rats weighing 150 to 175 g were individually housed and maintained on a regular rat chow diet. Water was given ad libitum. The adjuvant was prepared by suspending 75 mg of Mycobacterium butyricum (Difeo Laboratories, Detroit, Michigan) in 10 ml of white paraffin oil with continuous stirring for 2 hrs at room temperature prior to administration. Test compounds are prepared by suspending the drug in water, adding one drop of Tween 80 per 10 ml of suspension, and homogenizing. The adjuvant suspension (0.1 ml) was injected into the footpad of the left hind paw of the rat. Test compound suspensions were administered orally (10 ml/kg) the day before adjuvant suspension injection and the administration was continued for 21 days. One group of ten rats was used for the test drug, standard, adjuvant-injected control and non-injected control. Control animals received vehicle (10 ml/kg). Three doses of test drug and one dose of standard preparation were used. Injected and non-injected paw volumes were determined on the day the adjuvant suspension was given, and in subsequent days thereafter (usually days 5, 10, 18 and 21) by the method of C. A. Wilson, et al., Proc. Soc. Exp. Biol. Med., 111 544 (1962).
The percent inhibition of paw volume (injected and non-injected hind paw) was calculated by the following formula: [formula] ED50-values, i.e., the dose at which the drug effects a 50 % inhibition of paw volume, were estimated by the method of J. T. Litchfield and F. Wilcoxon, J. Pharm. Exp. Thes., 96, 99 (1948), and statistically evaluated by means of the sudent "t" test.

[1] = injected hind paw, read-out: ED50 (injected)
[2] = non-injected hind paw, read-out: ED50 (non-injected)

Structure (SMILES) | ED50 [1] [mg/kg] | ED50 [2] [mg/kg]
CC(CCCO)c1ccc2c(c1)C(=O)c1ccccc1CO2 (stereo not shown) [4-(6,11-Dihydro-11-oxodibenz[b,e]oxepin-2-yl)pentanol] | 5.6 | 3.9
CCCCC1C(=O)N(c2ccccc2)N(c2ccccc2)C1=O [phenylbutazone] | 12 | 6.8
